Assay results: PubChem BioAssay AID256 (DTP/NCI, 2004)
“And” between values parts separate entries of the source, which are not always exact repeats. Equal values may be shown once. Inconclusive results and toxic doses are left out.

System: CD2F1 mice, L1210 leukemia ip, survival T/C
Assay: NCI In Vivo Anticancer Drug Screen. Data for tumor model L1210 Leukemia (intraperitoneal) in CD2F1 (CDF1) mice
Details: higher = longer survival
Method in brief: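 Tumor-bearing mice (transplanted tumor) were split into treated and vehicle control groups, and the measured endpoint of each treated group was divided by that of its vehicle controls.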

[1] = endpoint: mean survival time, dose: 100.0 mg/kg/injection, schedule: Q04DX003 (ip), vehicle: saline with Tween-80
[2] = endpoint: mean survival time, dose: 200.0 mg/kg/injection, schedule: Q04DX003 (ip), vehicle: saline with Tween-80
[3] = endpoint: mean survival time, dose: 400.0 mg/kg/injection, schedule: Q04DX003 (ip), vehicle: saline with Tween-80
[4] = endpoint: mean survival time, dose: 25.0 mg/kg/injection, schedule: Q01DX009 (ip), vehicle: saline with Tween-80
[5] = endpoint: mean survival time, dose: 50.0 mg/kg/injection, schedule: Q01DX009 (ip), vehicle: saline with Tween-80
[6] = endpoint: mean survival time, dose: 100.0 mg/kg/injection, schedule: Q01DX009 (ip), vehicle: saline with Tween-80

SMILES: C1CCC(C2CCCC[N-]2)[N-]C1.O=C(O)C1CCC[N-]1.[Cl][Pt] (stereo not given)
- T/C (endpoint: median survival time, dose: 10.0 mg/kg/injection, schedule: Q04DX003 (ip), vehicle: saline): 103 % of control
- T/C (endpoint: median survival time, dose: 20.0 mg/kg/injection, schedule: Q04DX003 (ip), vehicle: saline): 101 % of control
- T/C (endpoint: median survival time, dose: 40.0 mg/kg/injection, schedule: Q04DX003 (ip), vehicle: saline): 98 % of control
- T/C (endpoint: median survival time, dose: 80.0 mg/kg/injection, schedule: Q04DX003 (ip), vehicle: saline): 98 % of control and 104 % of control
- T/C (endpoint: median survival time, dose: 160.0 mg/kg/injection, schedule: Q04DX003 (ip), vehicle: saline): 104 % of control

SMILES: CC(C)C1C(=O)CCCC1=O
- T/C [1]: 102 % of control
- T/C [2]: 105 % of control
- T/C [3]: 96 % of control

SMILES: CC[n+]1ccc(Nc2ccc(NC(=O)c3ccc(Nc4cc[n+](CC)c5ccc(N)cc45)cc3)cc2)cc1
- T/C (endpoint: mean survival time, dose: 0.25 mg/kg/injection, schedule: Q01DX009 (ip), vehicle: saline): 109 % of control
- T/C (endpoint: mean survival time, dose: 0.5 mg/kg/injection, schedule: Q01DX009 (ip), vehicle: water): 153 % of control
- T/C (endpoint: mean survival time, dose: 1.0 mg/kg/injection, schedule: Q01DX009 (ip), vehicle: saline): 154 % of control
- T/C (endpoint: mean survival time, dose: 1.0 mg/kg/injection, schedule: Q01DX009 (ip), vehicle: water): 228 % of control
- T/C (endpoint: mean survival time, dose: 2.0 mg/kg/injection, schedule: Q01DX009 (ip), vehicle: saline): 243 % of control
- T/C (endpoint: mean survival time, dose: 2.0 mg/kg/injection, schedule: Q01DX009 (ip), vehicle: water): 224 % of control
- T/C (endpoint: mean survival time, dose: 4.0 mg/kg/injection, schedule: Q01DX009 (ip), vehicle: water): 115 % of control

SMILES: C[n+]1c(-c2ccc(NC(=O)c3ccc(C(=O)Nc4ccc(-c5cn6ccccc6[n+]5C)cc4)cc3)cc2)cn2ccccc21
- T/C (endpoint: median survival time, dose: 5.4 mg/kg/injection, schedule: Q01DX005 (ip), vehicle: saline with Tween-80): 200 % of control
- T/C (endpoint: median survival time, dose: 6.25 mg/kg/injection, schedule: Q01DX005 (ip), vehicle: saline with Tween-80): 168 % of control
- T/C (endpoint: median survival time, dose: 9.0 mg/kg/injection, schedule: Q01DX005 (ip), vehicle: saline with Tween-80): 211 % of control
- T/C (endpoint: median survival time, dose: 12.5 mg/kg/injection, schedule: Q01DX005 (ip), vehicle: saline with Tween-80): 200 % of control
- T/C (endpoint: median survival time, dose: 15.0 mg/kg/injection, schedule: Q01DX005 (ip), vehicle: saline with Tween-80): 352 % of control
- T/C (endpoint: median survival time, dose: 25.0 mg/kg/injection, schedule: Q01DX005 (ip), vehicle: saline with Tween-80): 312 % of control and 341 % of control
- T/C (endpoint: median survival time, dose: 42.0 mg/kg/injection, schedule: Q01DX005 (ip), vehicle: saline with Tween-80): 152 % of control
- T/C (endpoint: median survival time, dose: 100.0 mg/kg/injection, schedule: Q01DX005 (ip), vehicle: saline with Tween-80): 86 % of control
- T/C (endpoint: median survival time, dose: 116.0 mg/kg/injection, schedule: Q01DX005 (ip), vehicle: saline with Tween-80): 109 % of control

SMILES: Clc1ccc(OCCCCCNCCSSCCNCCCCCOc2ccc(Cl)cn2)nc1
- T/C (endpoint: mean survival time, dose: 75.0 mg/kg/injection, schedule: Q01DX001 (ip), vehicle: other): 101 % of control
- T/C (endpoint: mean survival time, dose: 150.0 mg/kg/injection, schedule: Q01DX001 (ip), vehicle: other): 103 % of control
- T/C (endpoint: mean survival time, dose: 300.0 mg/kg/injection, schedule: Q01DX001 (ip), vehicle: other): 106 % of control

SMILES: COc1ccccc1F
- T/C (endpoint: mean survival time, dose: 10.0 mg/kg/injection, schedule: Q01DX009 (ip), vehicle: saline with Tween-80): 100 % of control
- T/C (endpoint: mean survival time, dose: 20.0 mg/kg/injection, schedule: Q01DX009 (ip), vehicle: saline with Tween-80): 102 % of control
- T/C (endpoint: mean survival time, dose: 40.0 mg/kg/injection, schedule: Q01DX009 (ip), vehicle: saline with Tween-80): 102 % of control

SMILES: CC(C)c1cc2cc(Br)ccc2o1
- T/C (endpoint: mean survival time, dose: 100.0 mg/kg/injection, schedule: Q01DX001 (ip), vehicle: saline): 103 % of control
- T/C (endpoint: mean survival time, dose: 200.0 mg/kg/injection, schedule: Q01DX001 (ip), vehicle: saline): 95 % of control

SMILES: Cc1cc(N(C)C)ccc1N=Nc1cc[n+]([O-])c(C)c1
- T/C [4]: 103 % of control
- T/C [5]: 108 % of control
- T/C [6]: 103 % of control
- T/C [1]: 104 % of control
- T/C [2]: 102 % of control
- T/C [3]: 104 % of control

SMILES: C[P+]1(c2ccccc2)c2ccccc2Oc2ccccc21
- T/C (endpoint: mean survival time, dose: 75.0 mg/kg/injection, schedule: Q01DX001 (ip), vehicle: saline): 102 % of control

SMILES: O=C1C2CCCC3CCCC(C(=O)N1NC1CCCCC1)C32 (stereo not given)
- T/C (endpoint: mean survival time, dose: 12.5 mg/kg/injection, schedule: Q01DX009 (ip), vehicle: saline with Tween-80): 96 % of control
- T/C [4]: 89 % of control
- T/C [5]: 86 % of control
- T/C [6]: 88 % of control

SMILES: COc1ccc(Nc2nc(N)nc3c2ncn3C2OC(CO)C(O)C2O)cc1 (stereo not given)
- T/C (endpoint: mean survival time, dose: 12.5 mg/kg/injection, schedule: Q01DX005 (ip), vehicle: distilled water + Tween-80): 96 % of control
- T/C (endpoint: mean survival time, dose: 25.0 mg/kg/injection, schedule: Q01DX005 (ip), vehicle: distilled water + Tween-80): 98 % of control
- T/C (endpoint: mean survival time, dose: 50.0 mg/kg/injection, schedule: Q01DX005 (ip), vehicle: distilled water + Tween-80): 104 % of control
- T/C (endpoint: mean survival time, dose: 100.0 mg/kg/injection, schedule: Q01DX005 (ip), vehicle: distilled water + Tween-80): 111 % of control

SMILES: Nc1nc(N)c(N=Nc2ccc(SCC(=O)O)cc2)c(=O)[nH]1
- T/C [6]: 100 % of control
- T/C (endpoint: mean survival time, dose: 200.0 mg/kg/injection, schedule: Q01DX009 (ip), vehicle: saline with Tween-80): 94 % of control
- T/C (endpoint: mean survival time, dose: 400.0 mg/kg/injection, schedule: Q01DX009 (ip), vehicle: saline with Tween-80): 101 % of control
